Experiments:
[1] = xn = mol fraction of the nth substance listed; settings: 100 kPa, Liquid, x1 = 0.25; for electrical conductivity: Alternating current cell with electrodes; for viscosity: Falling or rolling sphere viscometry; for speed of sound: Single path-length method; for mass density: Vibrating tube method
[2] = refractive index (Na D-line) (dimensionless); xn = mol fraction of the nth substance listed; settings: 100 kPa, Liquid, Standard Abbe refractometry, x1 = 0.25

C[N+](C)(C)Cc1ccccc1.[Cl-] [trimethylbenzylammonium chloride] + OCCO
Settings	electrical conductivity, [1] [S/m]	mass density, [1] [kg/m3]	refractive index, [2]	speed of sound, [1] [m/s]	viscosity, [1] [mPa·s]
283.15 K	0.263	1110.06	1.4995	1856.7	101.9
288.15 K	0.32	1107	1.498	1843.6	76.1
293.15 K	0.391	1103.95	1.4966	1830.8	58.2
298.15 K	0.461	1100.92	1.4951	1818	45.3
303.15 K	0.552	1097.89	1.4935	1805.3	35.9
308.15 K	0.643	1094.87	1.4921	1792.7	29
313.15 K	0.75	1091.85	1.4907	1780.2	23.9
318.15 K	0.872	1088.84	1.4893	1767.8	19.9
323.15 K	0.997	1085.83	1.4878	1755.4	16.8
328.15 K	1.12	1082.83	1.4864	1743	14.3
333.15 K	1.25	1079.82	1.4849	1730.7	12.3
338.15 K	1.41	1076.82	1.4835	1718.5	10.7
343.15 K	1.56	1073.83	1.482	1706.6	9.5

C[N+](C)(C)Cc1ccccc1.[Cl-] [trimethylbenzylammonium chloride] + OCCOCCO
Settings	electrical conductivity, [1] [S/m]	mass density, [1] [kg/m3]	refractive index, [2]	speed of sound, [1] [m/s]	viscosity, [1] [mPa·s]
283.15 K	0.088	1120.06	1.4954	1782.6	263.4
288.15 K	0.109	1116.91	1.494	1769	185.4
293.15 K	0.132	1113.75	1.4925	1755.8	134.1
298.15 K	0.165	1110.6	1.4911	1742.9	98.6
303.15 K	0.201	1107.46	1.4897	1730.2	74.8
308.15 K	0.254	1104.33	1.4884	1717.7	57.9
313.15 K	0.311	1101.21	1.4869	1705.3	44.4
318.15 K	0.356	1098.09	1.4855	1693	34.8
323.15 K	0.398	1094.99	1.4841	1680.8	27.8
328.15 K	0.474	1091.89	1.4826	1668.7	23.2
333.15 K	0.539	1088.79	1.4813	1656.6	18.7
338.15 K	0.611	1085.7	1.4798	1644.7	16
343.15 K	0.681	1082.63	1.4784	1633.1	14.2

C[N+](C)(C)Cc1ccccc1.[Cl-] [trimethylbenzylammonium chloride] + OCCOCCOCCO
Settings	electrical conductivity, [1] [S/m]	mass density, [1] [kg/m3]	refractive index, [2]	speed of sound, [1] [m/s]	viscosity, [1] [mPa·s]
283.15 K	0.048	1127.45	1.4923	1776.2	620.1
288.15 K	0.063	1124.08	1.4908	1761	470.8
293.15 K	0.081	1120.7	1.4894	1746.2	370.5
298.15 K	0.101	1117.31	1.488	1731.4	308.8
303.15 K	0.124	1113.93	1.4865	1716.9	214.3
308.15 K	0.152	1110.57	1.4849	1702.8	155.7
313.15 K	0.187	1107.21	1.4836	1688.5	115.6
318.15 K	0.226	1103.87	1.4821	1674.6	87.8
323.15 K	0.278	1100.54	1.4807	1660.8	68.5
328.15 K	0.325	1097.22	1.4792	1647.2	54.9
333.15 K	0.377	1093.9	1.4778	1633.6	43.5
338.15 K	0.44	1090.59	1.4763	1620.1	34.3
343.15 K	0.506	1087.29	1.4749	1606.6	27.4

From the NIST ThermoML archive (doi:10.1021/acs.jced.8b00213)
